38 molecules from US8871767B2, “2-arylimidazo[1,2-B]pyridazine, 2-phenylimidazo[1,2-A]pyridine, and 2-phenylimidazo[1,2-A]pyrazine derivatives” (Hengrui (USA) Ltd., priority 2010, dated 2014) can be followed below.

Read-outs that look alike come from different tables or passages of the source.

The subject of test [1] is Hedgehog pathway activation (GLi-luciferase reporter) in Shh Light II reporter cells. Briefly: Hedgehog pathway activation on Shh Light II reporter cells measured by luciferase activity. It counts as cell-based. The method in brief:
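Shh Light II reporter cells carrying a hedgehog-responsive GLi-luciferase reporter were stimulated either with 500 nM SAG, a direct Smoothened agonist, or with conditioned media containing human Sonic Hedgehog (hShh). Test compounds were evaluated for blocking this pathway activation, quantified by luciferase activity. Cell viability was monitored in parallel with the Celltiter-Blue® assay.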

In test [2] the test system is Hedgehog pathway activation on 10T1/2/Smo#3 cells (C3H10T1/2 cells transfected with human Smoothened receptor). Kind of test: Hedgehog pathway activation on 10T1/2/Smo#3 cells measured by ALP activity. It counts as cell-based. An outline of the steps:
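C3H10T1/2 cells stably expressing human Smoothened were activated with hShh-conditioned medium (10-20%) or 500 nM SAG, with test compounds present. Pathway block read as inhibited ALP activity (4-methylumbelliferyl phosphate fluorescence); viability checked by CellTiter-Blue. IC50 values reported.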

[3] abbreviates: Mus musculus, Shh Light II, SAG activation (500 nM SAG), read-out: Shh Light II luciferase activity (SAG activation).
The mark [4] stands for this setting: Mus musculus, Shh Light II, hShh activation, read-out: Shh (IC50, inhibition of Hedgehog pathway activation).
Setting [5] is: Mus musculus, Shh Light II, hShh activation, read-out: Shh Light II luciferase activity (hShh activation).
The mark [6] stands for this setting: Mus musculus, C3H 10T1/2, 10T1/2/Smo#3 cells, hShh activation, ALP activity, read-out: 10T1/2/Smo#3 ALP activity (hShh Activation).
The mark [7] stands for this setting: Mus musculus, C3H 10T1/2, 10T1/2/Smo#3 cells, measured by ALP activity, read-out: ALP (IC50, inhibition of Hedgehog pathway activation).

With `CC(=O)c1ccc(F)c(-c2ccc3nc(-c4ccc(C)c(NC(=O)C(C)(C)C)c4)cn3n2)c1` [compound 529], the IC50 in test [1] (setting [3]) was 0.3 to 3 µM; in test [1] (setting [4]) it was 0.197 µM; in test [1] (setting [5]) it was less than 0.3 µM; in test [2] (setting [6]), less than 0.3 µM; in test [2] (setting [7]), 0.116 µM.

In the case of `Cc1ccc(-c2cn3nc(-c4ccc(NC(=O)CCCCC(=O)NO)cc4C(F)(F)F)ccc3n2)cc1NC(=O)C(C)(C)C` [compound 531], the IC50 in test [1] (setting [4]) was 0.586 µM; in test [2] (setting [7]) it was 1.14 µM.

In the case of `Cc1ccc(-c2cn3nc(-c4ccc(C(C)(C)O)cc4C(F)(F)F)ccc3n2)cc1NC(=O)C(C)(C)C` [compound 533], the IC50 worked out at 0.301 µM in test [1] (setting [4]) and 0.449 µM in test [2] (setting [7]).

With `Cc1ccc(-c2cn3nc(-c4ccc(S(N)(=O)=O)cc4C(F)(F)F)ccc3n2)cc1NC(=O)C(C)(C)C` [compound 535], the IC50 in test [1] (setting [4]) stood at 0.056 µM; in test [2] (setting [7]), 0.139 µM.

Take `Cc1ccc(-c2cn3nc(-c4ccc(C(=O)O)cc4Cl)ccc3n2)cc1NC(=O)C(C)(C)C` [compound 540]: the figures for the IC50 in test [1] (setting [4]) and in test [2] (setting [7]) were 0.447 µM and 0.891 µM, respectively.

Regarding `Cc1ccc(-c2cn3nc(-c4ccc(C(N)=O)cc4F)ccc3n2)cc1NC(=O)C(C)(C)C` [compound 541], the IC50 in test [1] (setting [4]) worked out at 0.255 µM; in test [2] (setting [7]), 0.181 µM.

On to `Cc1ccc(-c2cn3nc(N4CCC(C(N)=O)CC4)ccc3n2)cc1NC(=O)C(C)(C)C` [compound 542], for which the IC50 was 0.3 to 3 µM in test [1] (setting [3]); 0.094 µM in test [1] (setting [4]); less than 0.3 µM in test [1] (setting [5]); less than 0.3 µM in test [2] (setting [6]); 0.088 µM in test [2] (setting [7]).

As for `Cc1ccc(-c2cn3nc(-c4ccc(C(=N)N)cc4C(F)(F)F)ccc3n2)cc1NC(=O)C(C)(C)C` [compound 543, N-(5-(6-(4-carbamimidoyl-2-(trifluoromethyl)phenyl)imidazo[1,2-b]pyridazin-2-yl)-2-methylphenyl)pivalamide], the IC50 amounted to 0.004 µM in test [1] (setting [4]) and 0.007 µM in test [2] (setting [7]).

Turning to `Cc1ccc(-c2cn3nc(N4CCC(C#N)CC4)ccc3n2)cc1NC(=O)C(C)(C)C` [compound 544], the IC50 in test [1] (setting [4]) turned out to be 0.224 µM; in test [2] (setting [7]), 0.462 µM.

For the molecule `Cc1ccc(-c2cn3nc(-c4ccc(C#N)cc4F)ccc3n2)cc1NC(=O)C(C)(C)C` [compound 545], the IC50 in test [1] (setting [4]) was determined as 0.082 µM; in test [2] (setting [7]), 0.443 µM.

Regarding `Cc1ccc(-c2cn3nc(-c4cccc(C=CC(=O)O)c4)ccc3n2)cc1NC(=O)C(C)(C)C` [compound 554], the IC50 in test [1] (setting [3]) was 3 to 30 µM; in test [1] (setting [4]), 0.316 µM; in test [1] (setting [5]), less than 0.3 µM; in test [2] (setting [6]), 0.3 to 3 µM; in test [2] (setting [7]), 1.19 µM.

Consider `COC(=O)CCCCCCC(=O)Nc1ccc(-c2ccc3nc(-c4ccc(C)c(NC(=O)C(C)(C)C)c4)cn3n2)cc1` [compound 556], for which the IC50 was determined as 0.395 µM in test [1] (setting [4]) and 0.737 µM in test [2] (setting [7]).

For `Cc1ccc(-c2cn3nc(-c4cccnc4C(F)(F)F)ccc3n2)cc1NC(=O)CCCCCCC(=O)NOC1CCCCO1` (stereo not shown) [compound 557, N1-(2-methyl-5-(6-(2-(trifluoromethyl)pyridin-3-yl)imidazo[1,2-b]pyridazin-2-yl)phenyl)-N8-((tetrahydro-2H-pyran-2-yl)oxy)octanediamide], the IC50 in test [1] (setting [4]) is 0.14 µM; in test [2] (setting [7]), 1.08 µM.

In the case of `Cc1ccc(-c2cn3nc(-c4ccc(C=CC(=O)NOC5CCCCO5)cc4)ccc3n2)cc1NC(=O)C(C)(C)C` (stereo not shown) [compound 558], the IC50 came out at 0.391 µM in test [1] (setting [4]) and 1.06 µM in test [2] (setting [7]).

With `Cc1ccc(-c2cn3nc(-c4cccc(C=CC(=O)NO)c4)ccc3n2)cc1NC(=O)C(C)(C)C` [compound 559], the IC50 in test [1] (setting [4]) was found to be 0.322 µM; in test [2] (setting [7]) it was 0.604 µM.

Regarding `Cc1ccc(-c2cn3nc(-c4ccc(C=CC(=O)NO)cc4)ccc3n2)cc1NC(=O)C(C)(C)C` [compound 560], the IC50 is 3 to 30 µM in test [1] (setting [3]); 0.402 µM in test [1] (setting [4]); less than 0.3 µM in test [1] (setting [5]); 0.3 to 3 µM in test [2] (setting [6]); 0.481 µM in test [2] (setting [7]).

On to `Cc1ccc(-c2cn3nc(-c4ccc(NC(=O)CCCCCCC(=O)NOC5CCCCO5)cc4)ccc3n2)cc1NC(=O)C(C)(C)C` (stereo not shown) [compound 562], for which the results for the IC50 in test [1] (setting [4]) and in test [2] (setting [7]) were 0.376 µM and 0.756 µM, respectively.

With `Cc1ccc(-c2cn3nc(-c4ccc(C#N)cc4Cl)ccc3n2)cc1NC(=O)C(C)(C)C` [compound 564], the IC50 in test [1] (setting [4]) worked out at 0.02 µM; in test [2] (setting [7]), 0.06 µM.

For the molecule `Cc1ccc(-c2cn3nc(-c4cc(C#N)ccc4Cl)ccc3n2)cc1NC(=O)C(C)(C)C` [compound 565], the IC50 in test [1] (setting [4]) worked out at 0.009 µM; in test [2] (setting [7]), 0.061 µM.

For the molecule `Cc1ccc(-c2cn3nc(N4CCC(C(N)=NO)CC4)ccc3n2)cc1NC(=O)C(C)(C)C` [compound 566], the IC50 in test [1] (setting [4]) stood at 0.285 µM; in test [2] (setting [7]) it was 0.371 µM.

Take `Cc1ccc(-c2cn3nc(-c4ccc(C(N)=NO)cc4F)ccc3n2)cc1NC(=O)C(C)(C)C` [compound 567]: the IC50 turned out to be 0.219 µM in test [1] (setting [4]) and 0.298 µM in test [2] (setting [7]).

For `Cc1ccc(-c2cn3nc(-c4ccc(C(N)=NO)cc4Cl)ccc3n2)cc1NC(=O)C(C)(C)C` [compound 568], the IC50 in test [1] (setting [4]) was 0.1 µM; in test [2] (setting [7]), 0.099 µM.

Take `Cc1ccc(-c2cn3nc(-c4cc(C(N)=NO)ccc4Cl)ccc3n2)cc1NC(=O)C(C)(C)C` [compound 569]: the IC50 in test [1] (setting [3]) was 0.3 to 3 µM; in test [1] (setting [4]), 0.032 µM; in test [1] (setting [5]), less than 0.3 µM; in test [2] (setting [6]), less than 0.3 µM; in test [2] (setting [7]), 0.086 µM.

On to `CC(C)(C)C(=O)Nc1cc(-c2cn3nc(N4CCN(C(=N)N)CC4)ccc3n2)ccc1C(F)(F)F` [compound 570], for which the IC50 in test [1] (setting [4]) came to 0.24 µM; in test [2] (setting [7]), 0.73 µM.

`CC1CN(C(=N)N)CCN1c1ccc2nc(-c3ccc(C(F)(F)F)c(NC(=O)C(C)(C)C)c3)cn2n1` (stereo not shown) [compound 571]: the IC50 in test [1] (setting [4]) worked out at 0.129 µM; in test [2] (setting [7]), 0.554 µM.

As to `COC(=O)C=Cc1ccc(Cl)c(-c2ccc3nc(-c4ccc(C)c(NC(=O)C(C)(C)C)c4)cn3n2)c1` [compound 573], the IC50 was found to be 0.07 µM in test [1] (setting [4]) and 1.04 µM in test [2] (setting [7]).

In the case of `Cc1ccc(-c2cn3nc(NC(=O)c4cccc(Br)c4)ccc3n2)cc1NC(=O)C(C)(C)C` [compound 594], the values for the IC50 in test [1] (setting [4]) and in test [2] (setting [7]) were 0.02 µM and 0.03 µM, respectively.

Turning to `Cc1ccc(-c2cn3nc(-c4cc(C#N)ccc4C(F)(F)F)ccc3n2)cc1NC(=O)C(C)(C)C` [compound 596], the figures for the IC50 in test [1] (setting [4]) and in test [2] (setting [7]) were 0.018 µM and 0.094 µM, respectively.

As to `Cc1ccc(-c2cn3nc(-c4ccc(C(=O)Nc5ccccc5N)cc4)ccc3n2)cc1NC(=O)C(C)(C)C` [compound 597], the IC50 in test [1] (setting [3]) was less than 0.3 µM; in test [1] (setting [4]), 0.039 µM; in test [1] (setting [5]), less than 0.3 µM; in test [2] (setting [6]), less than 0.3 µM; in test [2] (setting [7]), 0.285 µM.

With `Cc1ccc(-c2cn3nc(-c4cccc(C(=O)Nc5ccccc5N)c4)ccc3n2)cc1NC(=O)C(C)(C)C` [compound 598], the IC50 in test [1] (setting [4]) came out at 0.059 µM; in test [2] (setting [7]), 0.424 µM.

With `Cc1ccc(-c2cn3nc(NCc4ccc(C(=O)Nc5ccccc5N)cc4)ccc3n2)cc1NC(=O)C(C)(C)C` [compound 599], the IC50 in test [1] (setting [4]) is 0.048 µM; in test [2] (setting [7]), 0.248 µM.

On to `Cc1ccc(-c2cn3nc(NCc4ccc(C(=O)NOC5CCCCO5)cc4)ccc3n2)cc1NC(=O)C(C)(C)C` (stereo not shown) [compound 600], for which the IC50 in test [1] (setting [4]) is 0.13 µM; in test [2] (setting [7]), greater than 10 µM.

As to `Cc1ccc(-c2cn3nc(-c4cc(C(N)=NO)ccc4C(F)(F)F)ccc3n2)cc1NC(=O)C(C)(C)C` [compound 601], the IC50 in test [1] (setting [4]) was 0.066 µM; in test [2] (setting [7]), 0.04 µM.

On to `CCOC(=O)C=Cc1cccc(C(=O)Nc2ccc3nc(-c4ccc(C)c(NC(=O)C(C)(C)C)c4)cn3n2)c1` [compound 602], for which the values for the IC50 in test [1] (setting [4]) and in test [2] (setting [7]) were 0.155 µM and 0.314 µM, respectively.

Take `Cc1ccc(-c2cn3nc(NC(=O)c4cccc(C=CC(=O)NO)c4)ccc3n2)cc1NC(=O)C(C)(C)C` [compound 605]: the IC50 in test [1] (setting [3]) was less than 0.3 µM; in test [1] (setting [4]), 0.03 µM; in test [1] (setting [5]), less than 0.3 µM; in test [2] (setting [6]) it was less than 0.3 µM; in test [2] (setting [7]) it was 0.062 µM.

Consider `Cc1ccc(-c2cn3nc(NS(=O)(=O)c4cccc(C=CC(=O)NO)c4)ccc3n2)cc1NC(=O)C(C)(C)C` [compound 606], for which the IC50 in test [1] (setting [4]) came to 0.066 µM; in test [2] (setting [7]) it was 0.484 µM.

Consider `Cc1ccc(-c2cn3nc(-c4cccnc4C(F)(F)F)ccc3n2)cc1NC(=O)c1cccc(C=CC(=O)Nc2ccccc2N)c1` [compound 623, 3-(3-((2-aminophenyl)amino)-3-oxoprop-1-en-1-yl)-N-(2-methyl-5-(6-(2-(trifluoromethyl)pyridin-3-yl)imidazo[1,2-b]pyridazin-2-yl)phenyl)benzamide], for which the IC50 in test [1] (setting [3]) is 0.3 to 3 µM; in test [1] (setting [4]) it was 0.198 µM; in test [1] (setting [5]) it was less than 0.3 µM; in test [2] (setting [6]), less than 0.3 µM; in test [2] (setting [7]), 0.145 µM.

As to “N-(2-(2-(trifluoromethyl)pyridin-3-yl)-5-(6-(2-(trifluoromethyl)pyridin-3-yl)imidazo[1,2-b]pyridazin-2-yl)phenyl)pivalamide [Example 663]”, the IC50 in test [1] (hShh activation, read-out: Shh (IC50, inhibition of Hedgehog pathway activation)) amounted to 6.23 µM; in test [2] (10T1/2/Smo#3 cells, measured by ALP activity, read-out: ALP (IC50, inhibition of Hedgehog pathway activation)) it was 3.54 µM.
